Measurements taken from ChEMBL document CHEMBL1201862, “PubChem BioAssay data set” (2004).
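Method: 48-hour compound exposure of cells in 96-well plates, five concentrations, linear interpolation of endpoints. The concentration for 50% growth inhibition is given as GI50.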 Active and inactive are the calls of the source. Cut-off read from the data, not from the text of the source: active = GI50 up to about 1.1 µM and inactive = higher.

Experiments:
Test in all cases: NCI anticancer screen, dose series, 48 h
[1] = tested on: LXFL 529
[2] = tested on: M19-MEL
[3] = tested on: DMS-273
[4] = tested on: DLD-1
[5] = tested on: HOP-18
[6] = tested on: XF498
[7] = tested on: SNB-78
[8] = tested on: RXF 631
[9] = tested on: KM-20L2

| SMILES | GI50 [1] | GI50 [2] | GI50 [3] | GI50 [4] | GI50 [5] | GI50 [6] | GI50 [7] | GI50 [8] | GI50 [9] |
| --- | --- | --- | --- | --- | --- | --- | --- | --- | --- |
| CC(=O)OC1=CC(n2cc(F)c(=O)[nH]c2=O)OC(C)C1=O (stereo not drawn) | > 100 µM (inactive) | 90.8 µM (inactive) | 41.5 µM (inactive) | 97.3 µM (inactive) | > 100 µM (inactive) | > 100 µM (inactive) | > 100 µM (inactive) |  |  |
| COC(=O)C(CC(C)=O)CS(=O)(=O)CC(=O)C(=O)Nc1cccc([N+](=O)[O-])c1 (stereo not drawn) | > 100 µM (inactive) | > 100 µM (inactive) | > 100 µM (inactive) | > 100 µM (inactive) | > 100 µM (inactive) | 55.6 µM (inactive) | > 100 µM (inactive) | > 100 µM (inactive) | > 100 µM (inactive) |
| CCOC(=O)c1ncn2c1[nH]c(=O)c1ccccc12 | > 100 µM (inactive) | > 100 µM (inactive) | > 100 µM (inactive) |  |  | > 100 µM (inactive) | > 100 µM (inactive) |  | > 100 µM (inactive) |
| COC1OC(C)C(OC(=O)C(C)(C)C)C(C)(O)C1O (stereo not drawn) | > 100 µM (inactive) | > 100 µM (inactive) | > 100 µM (inactive) | > 100 µM (inactive) | > 100 µM (inactive) | > 100 µM (inactive) | 81.5 µM (inactive) |  | > 100 µM (inactive) |
| COc1cc(C(=O)NC2CCc3cc(OC)c(OC)c(OC)c3-c3ccc(OC)c(=O)cc32)cc(OC)c1OC (stereo not drawn) | 0.0272 µM (active) | 0.0577 µM (active) | 0.0316 µM (active) | 0.265 µM (active) | > 29.4 µM (inactive) | 0.15 µM (active) | 0.0232 µM (active) |  | 0.0817 µM (active) |
| Cc1nc2c(n1CC(C)C)C(=O)c1ccccc1C2=O | 42.6 µM (inactive) | 15.7 µM (inactive) | 26.8 µM (inactive) | 36.6 µM (inactive) |  | 33.3 µM (inactive) | 61.9 µM (inactive) |  | 35.6 µM (inactive) |
| O=C1OC(=O)C2C3CCC(O3)C12 (stereo not drawn) | > 100 µM (inactive) | > 100 µM (inactive) | > 100 µM (inactive) | > 100 µM (inactive) | > 100 µM (inactive) | > 100 µM (inactive) | > 100 µM (inactive) |  |  |
| COc1ccc(NS(=O)(=O)c2ccc(/N=C3\C=C(Nc4ccc(S(=O)(=O)Nc5ccc(OC)nn5)cc4)C(=O)c4ccccc43)cc2)nn1 | 22.2 µM (inactive) | 16.9 µM (inactive) | 14.9 µM (inactive) | 18.5 µM (inactive) | 16 µM (inactive) | 22.6 µM (inactive) | 57 µM (inactive) |  | 17.9 µM (inactive) |
| CC[C@](O)(C(=O)O)c1cc2n(c(=O)c1CO)Cc1cc3ccccc3nc1-2 | 0.692 µM (active) | 0.0336 µM (active) | 0.025 µM (active) |  | 0.0436 µM (active) | 0.0968 µM (active) |  | 0.084 µM (active) | 0.0535 µM (active) |
| O=C(O)CCC(O)=C1S(=O)(=O)OCCOS1(=O)=O | > 100 µM (inactive) | > 100 µM (inactive) | > 100 µM (inactive) | > 100 µM (inactive) | > 100 µM (inactive) |  | > 100 µM (inactive) |  | > 100 µM (inactive) |
| O=C(c1ccc(Cl)cc1)c1ccc(OCC(=O)N2CCN(c3ccccc3)CC2)cc1 | 52.7 µM (inactive) | > 100 µM (inactive) |  | > 100 µM (inactive) | > 100 µM (inactive) | > 100 µM (inactive) | 56.4 µM (inactive) |  | > 100 µM (inactive) |
| CC1=NN=C(NCCN(C)C)C/C1=C/c1ccccc1Cl | > 100 µM (inactive) | > 100 µM (inactive) | > 100 µM (inactive) | > 100 µM (inactive) | 61.7 µM (inactive) | 77.3 µM (inactive) | > 100 µM (inactive) | 67.5 µM (inactive) | 58.3 µM (inactive) |
| COC(=O)C(CCCC1(c2ccccc2)OCCO1)C(C)=O (stereo not drawn) | > 100 µM (inactive) | > 100 µM (inactive) | > 100 µM (inactive) | > 100 µM (inactive) | > 100 µM (inactive) | > 100 µM (inactive) | > 100 µM (inactive) | > 100 µM (inactive) | > 100 µM (inactive) |
| CC(C(=O)n1c2ccccc2c2ccccc21)N(c1ccccc1)c1ccccc1 (stereo not drawn) | 14.4 µM (inactive) | 18.5 µM (inactive) | 18.7 µM (inactive) | 17.8 µM (inactive) |  |  | 15.6 µM (inactive) |  | 18.9 µM (inactive) |
| CC1=C(C(=O)Nc2ccccc2)C(c2ccc([N+](=O)[O-])cc2)C(C(=O)Nc2ccccc2)=C(C)N1 | 17.4 µM (inactive) | 16.6 µM (inactive) | 24.4 µM (inactive) | 26.6 µM (inactive) |  | 15.1 µM (inactive) | 33.8 µM (inactive) | 21.2 µM (inactive) | 18.3 µM (inactive) |
| Cc1cc2c(cc1C)[n+]([O-])c(-c1c(Cl)cccc1Cl)c(N)[n+]2[O-] | 31.6 µM (inactive) | 34.9 µM (inactive) | 32.1 µM (inactive) | 30.7 µM (inactive) | 18.9 µM (inactive) |  | 43.9 µM (inactive) | 18.2 µM (inactive) | 40 µM (inactive) |
| Cc1ccc(C)c(N2C(=O)C(=O)C(c3nc4ccccc4o3)/C(=N/N)C2=O)c1 (stereo not drawn) | > 100 µM (inactive) | > 100 µM (inactive) | > 100 µM (inactive) | > 100 µM (inactive) | > 100 µM (inactive) | 47.6 µM (inactive) | > 100 µM (inactive) |  | > 100 µM (inactive) |
| Nc1nc(N)c(N=O)c(Nc2ccc(Br)cc2)n1 | 15.3 µM (inactive) | 30.5 µM (inactive) | 17.5 µM (inactive) | 10.4 µM (inactive) | 11.2 µM (inactive) | 18.8 µM (inactive) | 41.5 µM (inactive) |  | 25.3 µM (inactive) |
| O=C1C=C(c2c(O)ccc3ccccc23)c2cc(O)ccc2C1=O | 6.4 µM (inactive) | 3.33 µM (inactive) | 15.3 µM (inactive) | 16.9 µM (inactive) | 26.1 µM (inactive) | 11.1 µM (inactive) | 19.2 µM (inactive) |  | 20 µM (inactive) |
| COc1ccc(/C=C/C(=O)c2c(-c3ccccc3)nn(C)c(=O)c2N2CC2C)cc1 (stereo not drawn) | 25.1 µM (inactive) | 49.9 µM (inactive) | 21 µM (inactive) | 26.1 µM (inactive) | 27.5 µM (inactive) |  | 30.1 µM (inactive) |  | 23.9 µM (inactive) |
| CC1NOC(=O)C1/N=N/c1cccc(Cl)c1 (stereo not drawn) | 27.9 µM (inactive) | 30.3 µM (inactive) | 48.1 µM (inactive) | 34.6 µM (inactive) | 26.1 µM (inactive) | 22.3 µM (inactive) | 36.6 µM (inactive) |  | 35.6 µM (inactive) |
| CCN(CC)CC(C(=O)Nc1c(C)cccc1C)/C(C)=N/NC(N)=S (stereo not drawn) | > 100 µM (inactive) | > 100 µM (inactive) | > 100 µM (inactive) | > 100 µM (inactive) |  | > 100 µM (inactive) | > 100 µM (inactive) | > 100 µM (inactive) | > 100 µM (inactive) |
| CCOC(=O)NC(=O)c1cn(CCN2CCN(C(=O)NCCCCCCNC(=O)N3CCN(CCn4cc(C(=O)NC(=O)OCC)c(=O)[nH]c4=O)CC3)CC2)c(=O)[nH]c1=O | > 100 µM (inactive) | > 100 µM (inactive) | > 100 µM (inactive) |  | > 100 µM (inactive) | > 100 µM (inactive) | > 100 µM (inactive) | > 100 µM (inactive) | > 100 µM (inactive) |
| OC(c1ccccn1)C1CNc2ccccc21 (stereo not drawn) | > 100 µM (inactive) | > 100 µM (inactive) | > 100 µM (inactive) | > 100 µM (inactive) |  | > 100 µM (inactive) | > 100 µM (inactive) |  | > 100 µM (inactive) |
| CS/C(=N\C(=S)Nc1ccccc1)Nc1ccccc1 |  | 11 µM (inactive) | > 10 µM (inactive) |  |  |  | 40.3 µM (inactive) |  | 31 µM (inactive) |
| COc1cc2[nH]c3c(c2cc1OC)CCN[C@@]31CC[C@@]2(CC3c4c(cc(OC)c(O)c42)CCN3C)C[C@@H]1OC (stereo partly drawn) | 40.1 µM (inactive) | 19.4 µM (inactive) | 41.2 µM (inactive) | 53 µM (inactive) | > 38.7 µM (inactive) | 17.1 µM (inactive) | > 85.3 µM (inactive) | 7.78 µM (inactive) | 34 µM (inactive) |
| C/C=C(/I)CBr | 13.7 µM (inactive) | 14.5 µM (inactive) |  | 15.4 µM (inactive) |  | 13.5 µM (inactive) | 29 µM (inactive) | 15.3 µM (inactive) | 29.5 µM (inactive) |
